PMC12612596, “Real‐time FRET assay for monitoring detyrosination by TMCP1 and VASH2” (Protein Science : A Publication of the Protein Society, 2025)
pIC50: −log10 of the molar value. Read-outs that look alike come from different tables or passages of the source. Blank lines part the entries; values can stand above or below the molecule they belong to. Where a SMILES comes first, the peptide text is derived from it.

Columns and labels:
[1] = target: T1, TMCP1 (Homo sapiens, UniProt Q68EN5); assay: TMCP1 FRET enzyme activity assay under altered conditions (inhibitors, salts, metal ions, buffers, competition; substrate FS2); assay type: biochemical; settings: for Effect of divalent metal ion on TMCP1 activity (in words): TMCP1 pre-treated with 50 μM EDTA 10 min at room temperature, metal ion >50 μM, 30 min at 37 °C, then FS2
T1 construct: TMCP1 open Reading Frame (ORF) was cloned into pET28A+; 6His (N); made in house; host or cells: Escherichia coli BL21 Star (DE3)
T1 sequence (Q68EN5 1-471): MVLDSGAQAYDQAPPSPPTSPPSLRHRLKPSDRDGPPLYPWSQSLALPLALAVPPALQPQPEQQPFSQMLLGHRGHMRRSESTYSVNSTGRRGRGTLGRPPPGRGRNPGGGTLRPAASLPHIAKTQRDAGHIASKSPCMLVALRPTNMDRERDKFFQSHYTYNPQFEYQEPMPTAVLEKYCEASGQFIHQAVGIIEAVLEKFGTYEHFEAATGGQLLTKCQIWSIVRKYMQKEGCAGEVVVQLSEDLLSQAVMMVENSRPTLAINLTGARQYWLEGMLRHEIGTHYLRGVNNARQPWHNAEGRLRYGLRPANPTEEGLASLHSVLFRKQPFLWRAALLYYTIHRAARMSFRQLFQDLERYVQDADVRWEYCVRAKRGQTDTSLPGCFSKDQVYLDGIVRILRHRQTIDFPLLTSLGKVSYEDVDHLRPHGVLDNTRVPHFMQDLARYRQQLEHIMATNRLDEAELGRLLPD
Experimental: Protein production and purification steps were previously described (Nicot et al., [2023]). Briefly, TMCP1 open Reading Frame (ORF) was cloned into pET28A+ to produce 6His N‐terminally tagged TMCP1. Transformed Escherichia coli strain BL21 Star (DE3) was grown at 37°C until the optical density (OD600) reached 0.6; then the culture was induced with 0.5 mM isopropyl‐β‐d‐thiogalactoside (IPTG) overnight at 18°C. Cells were pelleted for 15 min at 5000 g and resuspended in a 50 mM Tris–HCl buffer (pH 7.4), 500 mM NaCl, 2 mM TCEP, 0.1% Tween. Cell lysis was performed by sonication followed by centrifugation at 20,000×g for 30 min at 4°C. The supernatant was incubated with pre‐washed Ni‐NTA agarose beads (Qiagen) at 4°C for 2 h. Beads were washed extensively in lysis buffer supplemented with 20 mM imidazole and 0.1% Triton. Elutions were performed in a 50 mM Tris–HCl buffer (pH 7.5), 500 mM NaCl, 250 mM imidazole and 1 mM TCEP. The eluted fractions containing proteins were dialyzed overnight at 4°C against 50 mM Tris–HCl buffer (pH 7.5), 300 mM NaCl, 1 mM TCEP using 10 kDa dialysis cassettes. The dialyzed samples were then concentrated and buffer‐exchanged in a 50 mM Tris–HCl buffer (pH 7.5), 200 mM NaCl, 1 mM TCEP using 10 kDa Amicon centrifugal filter units (Amicon Ultra‐4 Merck Millipore). TMCP1 was then snap frozen and stored at −80°C in aliquots.
For each experiment, a fresh stock solution of the fluorescent peptide substrates (5 mM in DMSO), was prepared and protected from light. […] VASH2/SVPB was used at a final concentration of 235 nM, obtained by diluting a 94 μM stock solution (stored at −80°C) at a 1:400 ratio. Enzymatic kinetics experiments were performed in triplicate by measuring the fluorescence of the FRET peptide substrates cleaved by the two enzymes. The cleavage releases a nitro‐tyrosine residue, which acts as a quencher. Its removal leads to an increase of fluorescence, which was quantified fluorometrically (Ex/Em = 320/420 nm) using a SpectraMax i3x (Molecular Devices) microplate reader.
Data were analyzed using GraphPad Prism, with a dedicated curve fitting applied. A Gaussian bell‐shaped curve was used for the optimal pH study, and dose–response inhibition curves were generated by plotting the concentration of NaCl, EDTA, NS3, etc., against the normalized initial velocity (Vi) corresponding to enzyme activity. Data were normalized so that the curve ranged from 100 to 0% activity.
Optimal pH was established using a 50 mM Tris–HCl buffer, with the pH adjusted to the desired value (ranging 4–11) using 0.1 M NaOH or HCl solutions. For the ionic strength experiments, a 500 mM NaCl stock solution in a 50 mM Tris–HCl buffer was used as a starting point for serial dilution (500–0 mM). For EDTA analysis, a 10 mM stock solution was prepared and fully solubilized by vigorous stirring at 80°C. EDTA (0.004 to 400 μM) was then incubated with TMCP1, for 30 min at 37°C before adding the fluorescent substrate and starting the fluorescence measurement. Subsequently, an identical experiment was conducted using 2‐fold serial dilutions to refine the curve around the previously determined IC50.
For metal ion dependency assays, the enzyme was first incubated with 50 μM of EDTA for 10 min at room temperature. Then, serial dilutions were performed from 100 mM stock solutions of each metal ion (ZnCl₂, CoCl₂, and MnCl₂.).
Finally, the competition assay was performed similarly, except that the 96‐well plate was kept on ice during the serial dilution of the NS3 substrate and its addition into the wells.

[2] = target: T2, VASH2/SVBP (Homo sapiens, UniProt Q86V25+Q8N300); assay: VASH2 FRET inhibition assay (substrate FS2); assay type: biochemical
T2 construct: His (N); T7 (N); made in house; host or cells: Escherichia coli BL21 Star (DE3)
T2 sequence (Q86V25 whole entry, species assumed): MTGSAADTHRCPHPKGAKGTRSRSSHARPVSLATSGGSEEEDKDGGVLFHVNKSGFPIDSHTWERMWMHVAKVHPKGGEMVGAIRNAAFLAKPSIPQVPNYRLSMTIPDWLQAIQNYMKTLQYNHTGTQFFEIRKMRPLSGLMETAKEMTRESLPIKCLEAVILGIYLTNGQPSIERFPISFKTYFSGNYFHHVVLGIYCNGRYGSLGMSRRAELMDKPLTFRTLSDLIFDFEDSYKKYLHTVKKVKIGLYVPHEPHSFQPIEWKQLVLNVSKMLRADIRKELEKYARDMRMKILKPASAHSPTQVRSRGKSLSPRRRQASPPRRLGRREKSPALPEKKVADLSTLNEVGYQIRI
T2 sequence (Q8N300 whole entry partner, species assumed): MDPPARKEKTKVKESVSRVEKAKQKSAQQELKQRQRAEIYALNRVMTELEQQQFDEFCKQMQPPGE
Experimental: Serial dilutions were prepared prior to enzyme addition (235 nM final concentration) to minimize time‐dependent inhibition effects and to avoid premature covalent modification of the enzyme during the dilution steps. […]

[3] = system: VASH1; parameters: method as in Feral et al., 2025; settings: ref Feral et al., 2025; cited from earlier work
[4] = target: T1, TMCP1; settings: tubulin as substrate; ref Nicot et al., 2023; cited from earlier work
Experimental: In addition, considering that TMCP1 is a metallocarboxypeptidase, its metal ion dependency was also assessed (Figure 4e). First, the metal ions present in the active site of TMCP1 were chelated with 50 μM EDTA. Subsequently, ZnCl₂, MnCl₂, or CoCl₂ were added at varying concentrations (>50 μM) to determine their impact on the restoration of enzymatic activity.

[5] = target: Tubulin MetalloCarboxyPeptidase 1 (TMCP1) (UniProt Q68EN5)
[6] = system: VASH1/SVBP; assay: LC-MS analysis of NS3 cleavage by VASH1/SVBP; assay type: biochemical

Molecule: [Cl-].[Na+] [NaCl]
Reduction in TMCP1 activity by NaCl ([1]; NaCl around 100 mM in 50 mM Tris-HCl, FS2, n = 3): 50%
Inhibition of TMCP1 by NaCl (in words) ([1]; NaCl concentrations above 200 mM, n = 3): almost complete inhibition

Molecule: CCOC(=O)C1OC1C(=O)N[C@@H](Cc1ccc(O)cc1)C(=O)O (some centres unmarked) [EpoY]
pIC50 [2]: 6.38
VASH1 inhibition (in words) [3]: blocking VASH1

Molecule: CC(=O)N[C@H](C(=O)N[C@@H](CCC(=O)O)C(=O)NCC(=O)N[C@@H](CCC(=O)O)C(=O)NCC(=O)N[C@@H](CCC(=O)O)C(=O)N[C@@H](CCC(=O)O)C(=O)N[C@@H](CCC(=O)O)C(=O)NCC(=O)N[C@@H](CCC(=O)O)C(=O)N[C@@H](CCC(=O)O)C(=O)N[C@@H](Cc1ccc(O)cc1)C(=O)O)C(C)C [NS3] (Ac-VEGEGEEEGEEY-OH)
Cleavage of NS3 by VASH1 by LC-MS (in words) [6]: no activity was detected
Affinity relative to fluorescent peptide (in words) ([1]; NS3 vs FS2 (100 μM) in competition assay): slightly higher affinity
pIC50 ([1]; read-out: IC50, TMCP1 competition by NS3): ~4.21

Molecule: [Cl-].[Cl-].[Mg+2] [MgCl₂]
TMCP1 activity with MgCl₂ (in words) ([1]; 80 mM PIPES with or without 1 mM MgCl₂, compared to 50 mM Tris-HCl): enzyme activity comparable to those obtained in 50 mM Tris–HCl

Molecule: O=C(O)CN(CCN(CC(=O)O)CC(=O)O)CC(=O)O [EDTA, reference compound]
pIC50 [1]: 5.67

Molecule: [Cl][Mn][Cl] [MnCl₂]
Effect of metal ion on TMCP1 (immunoblot, in words) [4]: strongly activated
Effect of divalent metal ion on TMCP1 activity (in words) ([1]; n = 3): also restored the activity but unlike CoCl₂, it did so in a concentration‐dependent manner
Effect of divalent metal ion on TMCP1 activity (in words) ([1]; n = 3, listed as Mn^2+): enhance its activity in a concentration‐dependent manner

Molecule: [Cl-].[Cl-].[Co+2] [CoCl₂]
Effect of metal ion on TMCP1 (immunoblot, in words) [4]: strongly activated
Effect of divalent metal ion on TMCP1 activity (in words) ([1]; n = 3): highly effective not only at restoring but even increasing TMCP1 activity, although its effectiveness was reduced at higher concentrations
Effect of divalent metal ion on TMCP1 activity (in words) ([1]; n = 3, listed as Co^2+): enhance its activity in a concentration‐dependent manner

Continued, in another order:

Effect of divalent metal ion on TMCP1 activity (in words) ([1]; n = 3): did not restore the enzymatic activity
Effect of divalent metal ion on TMCP1 activity (in words) ([1]; n = 3, listed as Zn^2+): inhibits the enzyme
Molecule: [Cl-].[Cl-].[Zn+2] [ZnCl₂]
Effect of metal ion on TMCP1 (immunoblot, in words) [4]: inhibited

IC50 of the competing non-fluorescent peptide NS3 on cleavage of the fluorogenic substrate FS2 (100 μM) by TMCP1, real-time FRET enzymatic assay [5]: 62 µM
Molecule: NS3 (natural substrate 3, non-fluorescent peptide of the last 12 amino acids of the α-tubulin C-terminal tail)

TMCP1 activity with EGTA (in words) ([1]; 1 mM EGTA in Tris-HCl buffer): complete loss of enzymatic activity
Molecule: O=C(O)CN(CCOCCOCCN(CC(=O)O)CC(=O)O)CC(=O)O [EGTA, reference compound]
